How the values were obtained:
Type in all cases: biochemical
Set-up in all cases: from tissue
MAGL = target: T1, MAGL (Mus musculus, UniProt O35678); assay: In vitro competitive ABPP, % inhibition at fixed concentration, MAGL
T1 sequence (O35678 1-303): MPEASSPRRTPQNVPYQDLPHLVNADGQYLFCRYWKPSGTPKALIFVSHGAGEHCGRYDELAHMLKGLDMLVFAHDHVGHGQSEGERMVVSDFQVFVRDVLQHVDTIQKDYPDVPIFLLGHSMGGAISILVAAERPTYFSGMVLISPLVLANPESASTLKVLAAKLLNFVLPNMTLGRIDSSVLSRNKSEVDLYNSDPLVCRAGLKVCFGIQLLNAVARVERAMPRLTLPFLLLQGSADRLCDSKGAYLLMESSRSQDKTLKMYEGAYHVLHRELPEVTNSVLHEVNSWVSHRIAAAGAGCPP
Description: (§1) In Vitro Competitive Activity-Based Protein Profiling.
(§2) Proteomes (mouse brain membrane fraction or cell lysates) (50 μL, 1.0 mg/ml total protein concentration) were preincubated with varying concentrations of inhibitors at 37° C. After 30 min, FP-Rh (1.0 μL, 50 μM in DMSO) was added and the mixture was incubated for another 30 min at 37° C. Reactions were quenched with SDS loading buffer (50 μL—4×) and run on SDS-PAGE. Following gel imaging, serine hydrolase activity was determined by measuring fluorescent intensity of gel bands corresponding to MAGL, ABHD6 and FAAH using ImageJ 1.43u software.

FAAH = target: T2, FAAH (Mus musculus, UniProt O08914); assay: In vitro competitive ABPP, % inhibition at fixed concentration, FAAH
T2 sequence (O08914 1-579): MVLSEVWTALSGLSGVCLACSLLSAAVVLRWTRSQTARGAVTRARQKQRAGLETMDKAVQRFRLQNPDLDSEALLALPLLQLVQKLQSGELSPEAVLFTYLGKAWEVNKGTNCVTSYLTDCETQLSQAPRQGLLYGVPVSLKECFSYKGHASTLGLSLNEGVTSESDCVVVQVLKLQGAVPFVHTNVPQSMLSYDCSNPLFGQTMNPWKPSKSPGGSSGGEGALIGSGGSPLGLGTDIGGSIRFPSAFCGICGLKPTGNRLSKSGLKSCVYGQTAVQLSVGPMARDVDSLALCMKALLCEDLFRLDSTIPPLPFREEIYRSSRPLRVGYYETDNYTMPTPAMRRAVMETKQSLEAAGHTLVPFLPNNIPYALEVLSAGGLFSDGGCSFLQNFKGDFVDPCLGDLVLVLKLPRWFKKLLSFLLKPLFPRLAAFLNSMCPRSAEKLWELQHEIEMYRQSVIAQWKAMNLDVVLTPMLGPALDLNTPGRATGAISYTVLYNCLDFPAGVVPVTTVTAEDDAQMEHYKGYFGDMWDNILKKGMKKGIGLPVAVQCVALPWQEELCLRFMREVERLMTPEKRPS
Description: as §1, §2

ABHD6 = target: T3, ABHD6 (Mus musculus, UniProt Q8R2Y0); assay: In vitro competitive ABPP, % inhibition at fixed concentration, ABHD6
T3 sequence (Q8R2Y0 1-336): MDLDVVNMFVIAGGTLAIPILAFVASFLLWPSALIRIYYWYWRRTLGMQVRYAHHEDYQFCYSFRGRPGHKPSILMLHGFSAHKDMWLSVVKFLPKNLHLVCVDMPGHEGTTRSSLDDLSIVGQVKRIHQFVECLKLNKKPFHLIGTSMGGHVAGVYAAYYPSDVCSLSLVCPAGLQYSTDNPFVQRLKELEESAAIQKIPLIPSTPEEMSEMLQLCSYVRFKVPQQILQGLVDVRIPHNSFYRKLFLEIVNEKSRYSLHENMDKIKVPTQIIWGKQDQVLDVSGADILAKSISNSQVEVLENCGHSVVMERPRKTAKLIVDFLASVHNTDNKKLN
Description: as §1, §2

SMILES | inhibition at 1 µM (MAGL) [%] | inhibition at 1 µM (FAAH) [%] | inhibition at 1 µM (ABHD6) [%] | inhibition at 10 µM (MAGL) [%] | inhibition at 10 µM (FAAH) [%] | inhibition at 10 µM (ABHD6) [%]
C[C@H]1CN(Cc2ccc(N3CCOCC3)cc2F)CCN1C(=O)ON1C(=O)CCC1=O [Example 88, 2,5-Dioxopyrrolidin-1-yl (2S)-4-{[2-fluoro-4-(morpholin-4-yl)phenyl]methyl}-2-methylpiperazine-1-carboxylate] | 25 to 75 | < 25 | 25 to 75 |  |  | 
C[C@H]1CN(Cc2ccc(N3CCOCC3)cc2Cl)CCN1C(=O)ON1C(=O)CCC1=O [Example 89, 2,5-Dioxopyrrolidin-1-yl (2S)-4-{[2-chloro-4-(morpholin-4-yl)phenyl]methyl}-2-methylpiperazine-1-carboxylate] | 25 to 75 | < 25 | 25 to 75 |  |  | 
C[C@H]1CN(Cc2ccc(N3CCOCC3)cc2OC(F)(F)F)CCN1C(=O)ON1C(=O)CCC1=O [Example 90, 2,5-Dioxopyrrolidin-1-yl (2S)-2-methyl-4-{[4-(morpholin-4-yl)-2-(trifluoromethoxy)phenyl]methyl}piperazine-1-carboxylate] | 25 to 75 | < 25 | 25 to 75 |  |  | 
C[C@@H]1CN(Cc2ccc(N3CCOCC3)cc2Cl)CCN1C(=O)ON1C(=O)CCC1=O [Example 96, 2,5-Dioxopyrrolidin-1-yl (2R)-4-{[2-chloro-4-(morpholin-4-yl)phenyl]methyl}-2-methylpiperazine-1-carboxylate] | < 25 | < 25 | < 25 |  |  | 
O=C(ON1C(=O)CCC1=O)N1CCN(Cc2ccc(N3CCCC3)cc2)CC1 [Example 99, 2,5-Dioxopyrrolidin-1-yl 4-(4-(pyrrolidin-1-yl)benzyl)piperazine-1-carboxylate] | 25 to 75 | < 25 | 25 to 75 |  |  | 
O=C(ON1C(=O)CCC1=O)N1CCN(Cc2ccc(N3CCOCC3)cc2)CC1 [Example 100, 2,5-Dioxopyrrolidin-1-yl 4-(4-morpholinobenzyl)piperazine-1-carboxylate] | < 25 | < 25 | < 25 |  |  | 
O=C(ON1C(=O)CCC1=O)N1CCN(Cc2ccc(N3CCOCC3)cc2OC(F)(F)F)CC1 [Example 102, 2,5-Dioxopyrrolidin-1-yl 4-{[4-(morpholin-4-yl)-2-(trifluoromethoxy)phenyl]methyl}piperazine-1-carboxylate] | > 75 | < 25 | 25 to 75 |  |  | 
C[C@@H]1CN(Cc2ccc(N3CCOCC3)cc2OC(F)(F)F)CCN1C(=O)ON1C(=O)CCC1=O [Example 103, 2,5-Dioxopyrrolidin-1-yl (2R)-2-methyl-4-{[4-(morpholin-4-yl)-2-(trifluoromethoxy)phenyl]methyl}piperazine-1-carboxylate] | < 25 | < 25 | < 25 |  |  | 
CS(=O)(=O)N1CCN(c2cc(Cl)ccc2CN2CCN(C(=O)ON3C(=O)CCC3=O)CC2)CC1 [Example 110, 2,5-Dioxopyrrolidin-1-yl 4-{[4-chloro-2-(4-methanesulfonylpiperazin-1-yl)phenyl]methyl}piperazine-1-carboxylate] | 25 to 75 | < 25 | 25 to 75 |  |  | 
O=C(ON1C(=O)CCC1=O)N1CCN(Cc2ccc(Cl)cc2N2CCC3(CCNC3=O)CC2)CC1 [Example 111, 2,5-Dioxopyrrolidin-1-yl 4-[(4-chloro-2-{1-oxo-2,8-diazaspiro[4.51]decan-8-yl}phenyl)methyl]piperazine-1-carboxylate] | 25 to 75 | < 25 | 25 to 75 |  |  | 
O=C(ON1C(=O)CCC1=O)N1CCN(Cc2ccc(Cl)cc2N2CCC2)CC1 [Example 112, 2,5-Dioxopyrrolidin-1-yl 4-{[2-(azetidin-1-yl)-4-chlorophenyl]methyl}piperazine-1-carboxylate] | > 75 | < 25 | 25 to 75 |  |  | 
Cc1cc(-c2ccc(CN3CCN(C(=O)ON4C(=O)CCC4=O)CC3)c(C)c2)cc(C)n1 [Example 113, 2,5-Dioxopyrrolidin-1-yl 4-{[4-(2,6-dimethylpyridin-4-yl)-2-methylphenyl]methyl}piperazine-1-carboxylate] | 25 to 75 | < 25 | 25 to 75 |  |  | 
O=C(ON1C(=O)CCC1=O)N1CCN(Cc2ccc(Cl)cc2N2CCC(C(=O)N3CCCC3)CC2)CC1 [Example 116, 2,5-Dioxopyrrolidin-1-yl 4-({4-chloro-2-[4-(pyrrolidine-1-carbonyl)piperidin-1-yl]phenyl}methyl)piperazine-1-carboxylate] | 25 to 75 | < 25 | < 25 |  |  | 
O=C(ON1C(=O)CCC1=O)N1CCN(Cc2ccc(Cl)cc2N2CCn3ncnc3C2)CC1 [Example 117, 2,5-Dioxopyrrolidin-1-yl 4-[(4-chloro-2-{5H,6H,7H,8H-[1,2,4]triazolo[1,5-a]pyrazin-7-yl}phenyl)methyl]piperazine-1-carboxylate] | 25 to 75 | < 25 | < 25 |  |  | 
O=C(ON1C(=O)CCC1=O)N1CCN(Cc2cc(C(F)(F)F)ccc2N2CCOCC2)CC1 [Example 119, 2,5-Dioxopyrrolidin-1-yl 4-{[2-(morpholin-4-yl)-5-(trifluoromethyl)phenyl]methyl}piperazine-1-carboxylate] | 25 to 75 | < 25 | 25 to 75 |  |  | 
O=C(ON1C(=O)CCC1=O)N1CCN(Cc2cc(C(F)(F)F)ccc2N2CCCC2)CC1 [Example 120, 2,5-Dioxopyrrolidin-1-yl 4-{[2-(pyrrolidin-1-yl)-5-(trifluoromethyl)phenyl]methyl}piperazine-1-carboxylate] | > 75 | < 25 | 25 to 75 |  |  | 
O=C(ON1C(=O)CCC1=O)N1CCN(Cc2ccc(Cl)cc2N2CCN3CCC[C@@H]3C2)CC1 [Example 125, 2,5-Dioxopyrrolidin-1-yl 4-({2-[(8aR)-octahydropyrrolo[1,2-a]piperazin-2-yl]-4-chlorophenyl}methyl)piperazine-1-carboxylate] | > 75 | < 25 | > 75 |  |  | 
CS(=O)(=O)N1CCN(C(=O)ON2C(=O)CCC2=O)CC1 [Example 126, 2,5-Dioxopyrrolidin-1-yl 4-methanesulfonylpiperazine-1-carboxylate] | 25 to 75 | < 25 | < 25 | < 25 | < 25 | < 25
Cc1ccc(N2CCOCC2)c(CN2CCN(C(=O)ON3C(=O)CCC3=O)CC2)c1 [Example 127, 2,5-Dioxopyrrolidin-1-yl 4-{[5-methyl-2-(morpholin-4-yl)phenyl]methyl}piperazine-1-carboxylate] | 25 to 75 | < 25 | 25 to 75 |  |  | 
Cc1ccc(N2CCCC2)c(CN2CCN(C(=O)ON3C(=O)CCC3=O)CC2)c1 [Example 128, 2,5-Dioxopyrrolidin-1-yl 4-{[5-methyl-2-(pyrrolidin-1-yl)phenyl]methyl}piperazine-1-carboxylate] | 25 to 75 | < 25 | < 25 |  |  | 
Cn1ncc(Br)c1CN1CCN(C(=O)ON2C(=O)CCC2=O)CC1 [Example 135, 2,5-Dioxopyrrolidin-1-yl 4-((4-bromo-1-methyl-1H-pyrazol-5-yl)methyl)piperazine-1-carboxylate] | 25 to 75 | < 25 | 25 to 75 |  |  | 
COc1ccc(-c2cc(CN3CCN(C(=O)ON4C(=O)CCC4=O)CC3)no2)cc1 [Example 136, 2,5-Dioxopyrrolidin-1-yl 4-((5-(4-methoxyphenyl)isoxazol-3-yl)methyl)piperazine-1-carboxylate] | 25 to 75 | < 25 | 25 to 75 |  |  | 

Reference: patent US9567302B2, “Carbamate compounds and of making and using same” (Abide Therapeutics, Inc., priority 2012, dated 2017)
